The values that follow come from patent US20130065883A1 (Centro Nacional de Investigaceiones Oncologicas (CNIO), priority 2010, published 2013).

Bounds are passed on as bounds.

The target of one experiment is T1, PIM-2 (Homo sapiens, UniProt Q9P1W9).
T1 construct: histidine tag (N); made in house
Kind of experiment: PIM-2 biochemical assay (ADP Hunter).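 Also: recombinant N-terminally His-tagged human enzyme, kinase activity quantified by detection of ADP formed as the direct reaction product.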 To be noted: semi-quantitative class; read-out: PIM2 IC50.

For another experiment, the target named is T2, FLT3 (Homo sapiens, UniProt P36888).
T2 sequence (P36888 27-993): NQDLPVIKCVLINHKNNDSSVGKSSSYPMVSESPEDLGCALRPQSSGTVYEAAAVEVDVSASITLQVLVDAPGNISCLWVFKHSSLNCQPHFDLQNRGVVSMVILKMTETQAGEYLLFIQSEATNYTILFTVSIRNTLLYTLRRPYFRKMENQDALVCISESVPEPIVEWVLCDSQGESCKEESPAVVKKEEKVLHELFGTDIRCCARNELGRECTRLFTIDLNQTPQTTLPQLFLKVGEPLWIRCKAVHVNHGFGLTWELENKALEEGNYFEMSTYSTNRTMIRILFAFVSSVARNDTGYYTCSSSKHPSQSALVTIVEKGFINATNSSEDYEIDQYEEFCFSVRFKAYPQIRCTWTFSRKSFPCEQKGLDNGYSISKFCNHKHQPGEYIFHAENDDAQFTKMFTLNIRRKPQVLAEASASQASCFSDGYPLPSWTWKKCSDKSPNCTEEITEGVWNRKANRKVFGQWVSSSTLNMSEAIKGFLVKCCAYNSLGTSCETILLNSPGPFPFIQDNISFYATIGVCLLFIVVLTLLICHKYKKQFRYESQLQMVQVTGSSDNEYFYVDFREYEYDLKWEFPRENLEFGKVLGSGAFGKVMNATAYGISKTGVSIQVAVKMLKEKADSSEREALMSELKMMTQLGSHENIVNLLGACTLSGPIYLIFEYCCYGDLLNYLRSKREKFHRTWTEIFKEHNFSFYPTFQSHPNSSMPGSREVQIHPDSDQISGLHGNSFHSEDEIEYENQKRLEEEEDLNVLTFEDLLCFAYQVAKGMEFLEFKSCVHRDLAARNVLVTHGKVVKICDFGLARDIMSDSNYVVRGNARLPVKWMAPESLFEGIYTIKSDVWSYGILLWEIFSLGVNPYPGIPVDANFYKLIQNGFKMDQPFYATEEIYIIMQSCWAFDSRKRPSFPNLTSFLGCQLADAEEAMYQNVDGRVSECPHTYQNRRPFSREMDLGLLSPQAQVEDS
Kind of experiment: FLT3 biochemical assay (ADP Hunter).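 Also: FLT3 enzymatic activity quantified through the ADP produced by the kinase reaction, detected with an ADP Hunter readout.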 Conditions: semi-quantitative class.

A further experiment addresses T3, PIM-1 (Homo sapiens, UniProt P11309).
T3 construct: histidine tag (C); made in house
Kind of experiment: PIM-1 biochemical assay (ADP Hunter).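 Also: recombinant human PIM-1 carrying a C-terminal His tag, kinase activity quantified via ADP formed as the direct enzymatic product.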 To be noted: semi-quantitative class; read-out: PIM1 IC50.

T3 sequence (P11309 whole entry): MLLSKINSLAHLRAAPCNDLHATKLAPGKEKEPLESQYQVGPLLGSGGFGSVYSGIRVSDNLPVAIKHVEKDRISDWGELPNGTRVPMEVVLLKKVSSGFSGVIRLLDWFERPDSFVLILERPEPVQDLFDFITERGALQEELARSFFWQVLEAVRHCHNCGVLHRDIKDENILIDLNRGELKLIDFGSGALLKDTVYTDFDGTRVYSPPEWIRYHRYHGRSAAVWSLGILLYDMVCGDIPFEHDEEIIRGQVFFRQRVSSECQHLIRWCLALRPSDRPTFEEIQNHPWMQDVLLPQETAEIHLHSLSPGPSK
T1 sequence (Q9P1W9 whole entry): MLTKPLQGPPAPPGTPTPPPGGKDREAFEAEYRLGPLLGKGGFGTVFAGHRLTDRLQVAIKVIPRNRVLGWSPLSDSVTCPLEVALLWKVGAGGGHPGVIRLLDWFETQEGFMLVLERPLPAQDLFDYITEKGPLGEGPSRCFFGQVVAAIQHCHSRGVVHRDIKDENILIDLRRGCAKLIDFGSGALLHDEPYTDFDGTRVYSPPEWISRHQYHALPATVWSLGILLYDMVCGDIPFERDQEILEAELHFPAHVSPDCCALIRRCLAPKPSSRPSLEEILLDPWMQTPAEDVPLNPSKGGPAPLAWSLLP

What is called IC50 is the concentration at which inhibition is half-maximal. Regarding `FC(F)(F)Oc1cccc(-n2nnc3ccc(N4CCC5(CCNC5)CC4)nc32)c1` [2-60], the IC50 on PIM-2 and on FLT3 was more than 1000 nM throughout.

Take `CN(C)C(=O)CN1CCC(CNc2ccc3nnn(-c4cccc(OC(F)(F)F)c4)c3n2)CC1` [2-22]: at PIM-2, the IC50 is more than 1000 nM.

Consider `O=CNCCN1CCN(c2ccc3nnn(-c4cccc(OC(F)(F)F)c4)c3n2)CC1` [2-29], for which the IC50 at PIM-1 is 100 to 1000 nM; at PIM-2 it was more than 1000 nM.

Take `COCCN1CCC(CNc2ccc3nnn(-c4cccc(OC(F)(F)F)c4)c3n2)CC1` [2-30]: the IC50 at PIM-2 and against FLT3 was more than 1000 nM each time.

For the compound `NS(=O)(=O)c1ccc(CCNc2ccc3nnn(-c4ccccc4)c3n2)cc1` [2-18], the 50% inhibitory concentration (IC50) at PIM-2 was more than 1000 nM.

In the case of `CCOC(=O)c1cc2nnn(-c3ccc(OC)cc3)c2nc1NCc1ccc(F)cc1` [2-06], the IC50 at PIM-1 and on PIM-2 was more than 1000 nM each time.

As for `CN(C)CCNc1ccc2nnn(-c3cccc(OC(F)(F)F)c3)c2n1` [2-39], the IC50 on PIM-1 and on PIM-2 was more than 1000 nM in each case.

Turning to `CCN1CCOC2(CCN(c3ccc4nnn(-c5cccc(OC(F)(F)F)c5)c4n3)CC2)C1` [2-90], the results for the IC50 on PIM-1, on PIM-2 and against FLT3 were more than 1000 nM, more than 1000 nM and 100 to 1000 nM, respectively.

As for `Fc1ccc(-n2nnc3ccc(N4CCOCC4)nc32)cc1` [2-13], the IC50 on PIM-2 is more than 1000 nM.

`c1ccc(CCNc2ccc3nnn(-c4ccccc4)c3n2)cc1` [2-11]: the IC50 on PIM-2 is more than 1000 nM.

For `FC(F)(F)Oc1cccc(-n2nnc3ccc(N4CCC5(CCNC5)C4)nc32)c1` (stereo not drawn) [2-64], the values for the half-maximal inhibitory concentration (IC50) on PIM-1, at PIM-2 and at FLT3 were 100 to 1000 nM, more than 1000 nM and more than 1000 nM, respectively.

For `FC(F)(F)Oc1cccc(-n2nnc3ccc(NCCc4cccnc4)nc32)c1` [2-08], the IC50 on PIM-2 was more than 1000 nM.

Turning to `CCOC(=O)c1cc2nnn(-c3ccc(O)cc3)c2nc1NCc1ccc(F)cc1` [2-15], the IC50 at PIM-1 and at PIM-2 was more than 1000 nM each time.

`FC(F)(F)Oc1cccc(-n2nnc3ccc(NC4CCOCC4)nc32)c1` [2-10]: the half-maximal inhibitory concentration (IC50) on PIM-2 was more than 1000 nM.

On to `FC(F)(F)Oc1cccc(-n2nnc3ccc(N4CC5CNCC5C4)nc32)c1` (stereo not drawn) [2-46], for which the IC50 at PIM-2 and against FLT3 was more than 1000 nM each time.

In the case of `O=C1NCCC12CCN(c1ccc3nnn(-c4cccc(OC(F)(F)F)c4)c3n1)CC2` [2-51], the IC50 on PIM-1 and at PIM-2 was more than 1000 nM in each case.

Consider `CCCNc1ccc2nnn(-c3ccc(O)cc3)c2n1` [2-24], for which, on PIM-2, the IC50 was more than 1000 nM.

Consider `COc1ccc(-n2nnc3ccc(N4CCCCCC4)nc32)cc1` [2-01], for which, on PIM-2, the half-inhibitory concentration (IC50) was more than 1000 nM.

With `FC(F)(F)Oc1cccc(-n2nnc3ccc(N4CCC5(CC4)CNC5)nc32)c1` [2-43], the results for the IC50 on PIM-1, on PIM-2 and at FLT3 were 100 to 1000 nM, more than 1000 nM and more than 1000 nM, respectively.

On to `FC(F)(F)Oc1cccc(-n2nnc3ccc(NCC4CC4)nc32)c1` [2-20], for which the half-maximal inhibitory concentration (IC50) at PIM-1 is 100 to 1000 nM; on PIM-2, more than 1000 nM.

For `OCCCNc1ccc2nnn(-c3cccc(OC(F)(F)F)c3)c2n1` [2-38], the IC50 is 100 to 1000 nM on PIM-1, more than 1000 nM on PIM-2 and more than 1000 nM on FLT3.

On to `FC(F)(F)c1csc(-n2nnc3ccc(NCC4CCNCC4)nc32)n1` [2-88], for which the IC50 at PIM-2 and at FLT3 was more than 1000 nM in each case.

For the compound `CCN1CCC2(CC1)CC(CNc1nc3c(cc1Cl)nnn3-c1cccc(OC(F)(F)F)c1)C2` [2-91], the IC50 is 100 to 1000 nM on PIM-1, more than 1000 nM on PIM-2 and 100 to 1000 nM at FLT3.

`CC(C)(C)OC(=O)N1CCC(Nc2ccc3nnn(-c4cccc(OC(F)(F)F)c4)c3n2)CC1` [2-33]: the IC50 at PIM-1 and at PIM-2 was more than 1000 nM each time.

Regarding `O=C1NCCN1CCNc1ccc2nnn(-c3cccc(OC(F)(F)F)c3)c2n1` [2-48], the IC50 at PIM-1 was 100 to 1000 nM; on PIM-2 it was more than 1000 nM.

Consider `CCCNc1ccc2nnn(-c3cccc(OC(F)(F)F)c3)c2n1` [2-09], for which the concentration for half-maximal inhibition (IC50) at PIM-2 is more than 1000 nM.

As for `FC(F)(F)Oc1cccc(-n2nnc3ccc(NCC4CCN(CC5CCOCC5)CC4)nc32)c1` [2-75], the IC50 was 100 to 1000 nM on PIM-1, more than 1000 nM at PIM-2 and more than 1000 nM against FLT3.

In the case of `NC(=O)CNc1ccc2nnn(-c3cccc(OC(F)(F)F)c3)c2n1` [2-40], the IC50 at PIM-1 and at PIM-2 was more than 1000 nM in each case.

`CCOC(=O)c1cc2nnn(-c3ccc(OC)cc3)c2nc1N1CCCCCC1` [2-07]: the IC50 on PIM-1 and on PIM-2 was more than 1000 nM throughout.

For the compound `CNCCCNc1ccc2nnn(-c3cccc(OC(F)(F)F)c3)c2n1` [2-50], the IC50 was 100 to 1000 nM on PIM-1 and more than 1000 nM on PIM-2.

Take `COc1cc(NC2CCOCC2)nc2c1nnn2-c1cccc(N(C)C)c1` [2-93]: the figures for the concentration for half-maximal inhibition (IC50) at PIM-1 and on FLT3 were 100 to 1000 nM and more than 1000 nM, respectively.

As to `Nc1ccc(-n2nnc3ccc(NCC4CCNCC4)nc32)cn1` [2-71], the IC50 was more than 1000 nM at PIM-2 and 100 to 1000 nM against FLT3.

On to `O=C1CN(CCNc2ccc3nnn(-c4cccc(OC(F)(F)F)c4)c3n2)CCN1` [2-35], for which the 50% inhibitory concentration (IC50) on PIM-1 was 100 to 1000 nM; on PIM-2, more than 1000 nM.

For the compound `FC(F)(F)Oc1cccc(-n2nnc3ccc(NCC4CCN(CC5CC5)CC4)nc32)c1` [2-31], the IC50 at PIM-2 and at FLT3 was more than 1000 nM throughout.

For `COc1ccc(-n2nnc3ccc(NCc4ccc(F)cc4)nc32)cc1` [2-02, (4-Fluoro-benzyl)-[3-(4-methoxy-phenyl)-3H-[1,2,3]triazolo[4,5-b]pyridin-5-yl]amine], the IC50 on PIM-2 was more than 1000 nM.

For the compound `COc1cccc(CCNc2ccc3nnn(-c4ccc(F)cc4)c3n2)c1OC` [2-17], the IC50 on PIM-1 and at PIM-2 was more than 1000 nM throughout.

Take `O=C1CNC2(CCN(c3ccc4nnn(-c5cccc(OC(F)(F)F)c5)c4n3)CC2)C1` [2-52]: the half-maximal inhibitory concentration (IC50) on PIM-1 and at PIM-2 was more than 1000 nM in each case.

Consider `OCCNc1ccc2nnn(-c3cccc(OC(F)(F)F)c3)c2n1` [2-37], for which the figures for the 50% inhibitory concentration (IC50) on PIM-1 and at PIM-2 were 100 to 1000 nM and more than 1000 nM, respectively.

Take `CCOC(=O)c1cc2nnn(-c3ccc(O)cc3)c2nc1N1CCCCCC1` [2-16]: the IC50 at PIM-1 and at PIM-2 was more than 1000 nM in each case.

On to `FC(F)(F)Oc1cccc(-n2nnc3ccc(NCCN4CCNCC4)nc32)c1` [2-36], for which the IC50 on PIM-1 is 100 to 1000 nM; at PIM-2, more than 1000 nM; against FLT3, 100 to 1000 nM.

Regarding `FC(F)(F)Oc1cccc(-n2nnc3ccc(N4CCC5(CCNCC5)CC4)nc32)c1` [2-45], the IC50 on PIM-2 and against FLT3 was more than 1000 nM each time.

Take `CC(C)CN1CCC(CNc2ccc3nnn(-c4cccc(OC(F)(F)F)c4)c3n2)CC1` [2-74]: the IC50 on PIM-1 is 100 to 1000 nM; on PIM-2, more than 1000 nM; on FLT3, more than 1000 nM.

Regarding `CCOC(=O)c1cc2nnn(-c3ccc(OC)cc3)c2nc1NCC1CCN(C)CC1` [2-14, 3-(4-Methoxy-phenyl)-5-[(1-methyl-piperidin-4-ylmethyl)-amino]-3H-[1,2,3]triazolo[4,5-b]pyridine-6-carboxylic acid ethyl ester], the IC50 on PIM-1 and on PIM-2 was more than 1000 nM each time.

Take `CC(C)(C)OC(=O)N1CCN(CCNc2ccc3nnn(-c4cccc(OC(F)(F)F)c4)c3n2)CC1` [2-34]: the IC50 on PIM-1 and on PIM-2 was more than 1000 nM in each case.

Consider `Fc1ccc(-n2nnc3ccc(N4CCCCCC4)nc32)cc1` [2-12], for which the IC50 at PIM-2 is more than 1000 nM.

Regarding `CC(=O)Nc1ccc(-n2nnc3ccc(NCC4CCN(C)CC4)nc32)cc1` [2-23], the IC50 at PIM-1 and at PIM-2 was more than 1000 nM throughout.

For `FC(F)(F)Oc1cccc(-n2nnc3cc(Cl)c(NCC4CC5(CCNCC5)C4)nc32)c1` [2-77], the IC50 on PIM-1 is 100 to 1000 nM; on PIM-2, more than 1000 nM; on FLT3, more than 1000 nM.

With `CC(=O)NCCNc1ccc2nnn(-c3cccc(OC(F)(F)F)c3)c2n1` [2-41], the concentration for half-maximal inhibition (IC50) at PIM-1 and on PIM-2 was more than 1000 nM each time.

As to `O=C(CN1CCC(CNc2ccc3nnn(-c4cccc(OC(F)(F)F)c4)c3n2)CC1)C1CC1` [2-26], at PIM-2, the IC50 is more than 1000 nM.

At FLT3, `Oc1ccc(-n2nnc3ccc(N4CCCCCC4)nc32)cc1` [2-05] displayed an IC50 of more than 1000 nM.

`COc1ccc(-n2nnc3ccc(NCc4cccc(Cl)c4)nc32)cc1` [2-03]: the IC50 at PIM-1 and at PIM-2 was more than 1000 nM throughout.

Turning to `NC(=O)CCNc1ccc2nnn(-c3cccc(OC(F)(F)F)c3)c2n1` [2-42], the IC50 on PIM-1 was 100 to 1000 nM; on PIM-2, more than 1000 nM.

Consider `FC(F)(F)Oc1cccc(-n2nnc3ccc(NCC4CCN(C5CC5)CC4)nc32)c1` [2-27], for which the IC50 was 100 to 1000 nM at PIM-1 and more than 1000 nM at PIM-2.
